Data taken from patent US20080287549A1, “METHODS AND MATERIALS FOR CONTROLLING RODENT POPULATIONS” (priority 2007, published 2008).

Tests used:
[1] = Long-term low-dose study: mean body weight in male and female rats; type: in vivo
Protocol: (§1) Twenty-eight weeks of a two-year study of the effects of low dosages of trans-clomiphene (0 mg/kg/day (control), 0.0125 mg/kg/day, 0.025 mg/kg/day and 0.05 mg/kg/day) on mean body weight and mean food consumption in age-matched male and female rats has been completed. For each group, n=60. Losses in body weight and decreases in food consumption in both male and female treatment groups (compared to control groups) have been observed in every treatment group. As the study has progressed, the losses in body weight and decreases in food consumption have become more pronounced. See Table 2 (M=male; F=female; Mean Body weight is in grams; Mean Food consumption is in grams/animal/day; and dosages are of trans-clomiphene in mg/kg/day).

[2] = Body weight in male rats after 7 days of treatment; type: in vivo; details: 7 consecutive days; for Average Loss of Body Weight: pre- vs post-treatment
Protocol: (§2) Male rats were given increasing doses (control=0 mg/kg, low=0.2 mg/kg, medium=2 mg/kg and high=20 mg/kg) of clomiphene, trans-clomiphene or cis-clomiphene for 7 consecutive days. Treatment was followed by a 7-day washout period. Serum testosterone levels and body weight were tested pre-treatment and post-treatment. Serum testosterone levels were analyzed by direct radioimmunoassay (RIA).
(§3) There were significant and unexpected decreases in serum testosterone and body weight among all treatment groups. […] There was a significant loss in both body weight and total serum testosterone with clomiphene that was dose-dependent.

[3] = Long-term low-dose study: mean food consumption in male and female rats; type: in vivo
Protocol: as §1

[4] = test system: Serum testosterone; experiment: Serum testosterone in male rats after 7 days of treatment (direct RIA); type: in vivo; details: 7 consecutive days; for Average Decrease in Serum Testosterone Level (%): pre- vs post-treatment
Protocol: as §2, §3

[5] = Ernst et al.; cited from earlier work
[6] = in vivo; cited from earlier work
[7] = female rats, 0.0125 mg/kg/day, Week 2
[8] = female rats, 0.0125 mg/kg/day, Week 6
[9] = female rats, 0.0125 mg/kg/day, Week 10
[10] = female rats, 0.0125 mg/kg/day, Week 14
[11] = female rats, 0.0125 mg/kg/day, Week 18
[12] = female rats, 0.0125 mg/kg/day, Week 22
[13] = female rats, 0.0125 mg/kg/day, Week 26
[14] = female rats, 0.0125 mg/kg/day, Week 28
[15] = female rats, 0.025 mg/kg/day, Week 2
[16] = female rats, 0.025 mg/kg/day, Week 6
[17] = female rats, 0.025 mg/kg/day, Week 10
[18] = female rats, 0.025 mg/kg/day, Week 14
[19] = female rats, 0.025 mg/kg/day, Week 18
[20] = female rats, 0.025 mg/kg/day, Week 22
[21] = female rats, 0.025 mg/kg/day, Week 26
[22] = female rats, 0.025 mg/kg/day, Week 28
[23] = female rats, 0.05 mg/kg/day, Week 2
[24] = female rats, 0.05 mg/kg/day, Week 6
[25] = female rats, 0.05 mg/kg/day, Week 10
[26] = female rats, 0.05 mg/kg/day, Week 14
[27] = female rats, 0.05 mg/kg/day, Week 18
[28] = female rats, 0.05 mg/kg/day, Week 22
[29] = female rats, 0.05 mg/kg/day, Week 26
[30] = female rats, 0.05 mg/kg/day, Week 28
[31] = male rats, 0.0125 mg/kg/day, Week 2
[32] = male rats, 0.0125 mg/kg/day, Week 6
[33] = male rats, 0.0125 mg/kg/day, Week 10
[34] = male rats, 0.0125 mg/kg/day, Week 14
[35] = male rats, 0.0125 mg/kg/day, Week 18
[36] = male rats, 0.0125 mg/kg/day, Week 22
[37] = male rats, 0.0125 mg/kg/day, Week 26
[38] = male rats, 0.0125 mg/kg/day, Week 28
[39] = male rats, 0.025 mg/kg/day, Week 2
[40] = male rats, 0.025 mg/kg/day, Week 6
[41] = male rats, 0.025 mg/kg/day, Week 10
[42] = male rats, 0.025 mg/kg/day, Week 14
[43] = male rats, 0.025 mg/kg/day, Week 18
[44] = male rats, 0.025 mg/kg/day, Week 22
[45] = male rats, 0.025 mg/kg/day, Week 26
[46] = male rats, 0.025 mg/kg/day, Week 28
[47] = male rats, 0.05 mg/kg/day, Week 2
[48] = male rats, 0.05 mg/kg/day, Week 6
[49] = male rats, 0.05 mg/kg/day, Week 10
[50] = male rats, 0.05 mg/kg/day, Week 14
[51] = male rats, 0.05 mg/kg/day, Week 18
[52] = male rats, 0.05 mg/kg/day, Week 22
[53] = male rats, 0.05 mg/kg/day, Week 26
[54] = male rats, 0.05 mg/kg/day, Week 28

CCN(CC)CCOc1ccc(/C(=C(\Cl)c2ccccc2)c2ccccc2)cc1 [Trans-clomiphene, trans-clomiphene]
Mean Body weight [1, 7]: 225.1 grams | Mean Body weight [1, 8]: 269.0 grams | Mean Body weight [1, 9]: 280.3 grams | Mean Body weight [1, 10]: 291.8 grams | Mean Body weight [1, 11]: 300.8 grams | Mean Body weight [1, 12]: 309.0 grams | Mean Body weight [1, 13]: 318.7 grams | Mean Body weight [1, 14]: 318.4 grams | Mean Body weight [1, 15]: 220.4 grams | Mean Body weight [1, 16]: 257.3 grams | Mean Body weight [1, 17]: 271.8 grams | Mean Body weight [1, 18]: 281.4 grams | Mean Body weight [1, 19]: 286.9 grams | Mean Body weight [1, 20]: 294.9 grams | Mean Body weight [1, 21]: 305.5 grams | Mean Body weight [1, 22]: 304.4 grams | Mean Body weight [1, 23]: 214.4 grams | Mean Body weight [1, 24]: 245.1 grams | Mean Body weight [1, 25]: 260.3 grams | Mean Body weight [1, 26]: 272.3 grams | Mean Body weight [1, 27]: 278.9 grams | Mean Body weight [1, 28]: 287.7 grams | Mean Body weight [1, 29]: 296.9 grams | Mean Body weight [1, 30]: 298.3 grams | Mean Body weight [1, 31]: 355.5 grams | Mean Body weight [1, 32]: 467.0 grams | Mean Body weight [1, 33]: 519.0 grams | Mean Body weight [1, 34]: 552.1 grams | Mean Body weight [1, 35]: 572.5 grams | Mean Body weight [1, 36]: 597.8 grams | Mean Body weight [1, 37]: 619.6 grams | Mean Body weight [1, 38]: 620.2 grams | Mean Body weight [1, 39]: 347.4 grams | Mean Body weight [1, 40]: 447.8 grams | Mean Body weight [1, 41]: 498.0 grams | Mean Body weight [1, 42]: 527.8 grams | Mean Body weight [1, 43]: 543.3 grams | Mean Body weight [1, 44]: 566.3 grams | Mean Body weight [1, 45]: 590.0 grams | Mean Body weight [1, 46]: 594.2 grams | Mean Body weight [1, 47]: 335.2 grams | Mean Body weight [1, 48]: 414.1 grams | Mean Body weight [1, 49]: 451.7 grams | Mean Body weight [1, 50]: 480.5 grams | Mean Body weight [1, 51]: 496.9 grams | Mean Body weight [1, 52]: 518.8 grams | Mean Body weight [1, 53]: 536.8 grams | Mean Body weight [1, 54]: 542.9 grams | Effect on body weight compared to the control group ([2]; 0.2-20 mg/kg): caused a loss in body weight | Average Loss of Body Weight ([2]; high=20 mg/kg): 35 g | Average Loss of Body Weight ([2]; low=0.2 mg/kg): 34 g | Average Loss of Body Weight ([2]; medium=2 mg/kg): 40 g | Mean Food consumption [3, 7]: 17.1 grams/animal/day | Mean Food consumption [3, 8]: 17.4 grams/animal/day | Mean Food consumption [3, 9]: 17.5 grams/animal/day | Mean Food consumption [3, 10]: 20.0 grams/animal/day | Mean Food consumption [3, 11]: 17.5 grams/animal/day | Mean Food consumption [3, 12]: 17.8 grams/animal/day | Mean Food consumption [3, 13]: 16.9 grams/animal/day | Mean Food consumption [3, 14]: 16.4 grams/animal/day | Mean Food consumption [3, 15]: 17.3 grams/animal/day | Mean Food consumption [3, 16]: 16.7 grams/animal/day | Mean Food consumption [3, 17]: 17.8 grams/animal/day | Mean Food consumption [3, 18]: 18.2 grams/animal/day | Mean Food consumption [3, 19]: 16.1 grams/animal/day | Mean Food consumption [3, 20]: 17.0 grams/animal/day | Mean Food consumption [3, 21]: 16.3 grams/animal/day | Mean Food consumption [3, 22]: 15.4 grams/animal/day | Mean Food consumption [3, 23]: 16.0 grams/animal/day | Mean Food consumption [3, 24]: 15.8 grams/animal/day | Mean Food consumption [3, 25]: 17.4 grams/animal/day | Mean Food consumption [3, 26]: 19.0 grams/animal/day | Mean Food consumption [3, 27]: 16.4 grams/animal/day | Mean Food consumption [3, 28]: 17.5 grams/animal/day | Mean Food consumption [3, 29]: 16.3 grams/animal/day | Mean Food consumption [3, 30]: 15.3 grams/animal/day | hypophagic effects ([3]; male and female rats, 0.0125-0.05 mg/kg/day, twenty-eight weeks): observed even at extremely low concentrations | Mean Food consumption [3, 31]: 23.8 grams/animal/day | Mean Food consumption [3, 32]: 25.1 grams/animal/day | Mean Food consumption [3, 33]: 26.6 grams/animal/day | Mean Food consumption [3, 34]: 26.5 grams/animal/day | Mean Food consumption [3, 35]: 24.3 grams/animal/day | Mean Food consumption [3, 36]: 25.1 grams/animal/day | Mean Food consumption [3, 37]: 23.1 grams/animal/day | Mean Food consumption [3, 38]: 23.6 grams/animal/day | Mean Food consumption [3, 39]: 24.3 grams/animal/day | Mean Food consumption [3, 40]: 23.8 grams/animal/day | Mean Food consumption [3, 41]: 26.9 grams/animal/day | Mean Food consumption [3, 42]: 25.4 grams/animal/day | Mean Food consumption [3, 43]: 23.6 grams/animal/day | Mean Food consumption [3, 44]: 24.0 grams/animal/day | Mean Food consumption [3, 45]: 23.4 grams/animal/day | Mean Food consumption [3, 46]: 22.6 grams/animal/day | Mean Food consumption [3, 47]: 22.0 grams/animal/day | Mean Food consumption [3, 48]: 22.5 grams/animal/day | Mean Food consumption [3, 49]: 23.5 grams/animal/day | Mean Food consumption [3, 50]: 25.9 grams/animal/day | Mean Food consumption [3, 51]: 22.6 grams/animal/day | Mean Food consumption [3, 52]: 23.1 grams/animal/day | Mean Food consumption [3, 53]: 22.4 grams/animal/day | Mean Food consumption [3, 54]: 22.0 grams/animal/day | Effect on serum testosterone levels compared to the control group ([4]; 0.2-20 mg/kg): significantly and statistically lowered serum testosterone levels | Average Decrease in Serum Testosterone Level (%) ([4]; high=20 mg/kg): 73% | Average Decrease in Serum Testosterone Level (%) ([4]; low=0.2 mg/kg): 71.7% | Average Decrease in Serum Testosterone Level (%) ([4]; medium=2 mg/kg): 68.3% | estrogenic / antiestrogenic activity [5]: antiestrogenic | in vivo clearance [6]: rapidly cleared
